Reference: ChEMBL document CHEMBL1133694, “Hydroxamic acid derivatives as potent peptide deformylase inhibitors and antibacterial agents” (J Med Chem, 2000)
pIC50: −log10 of the molar value. In brackets after ≈: the same amount, converted by molar mass. Values belong to the compound of their own block, whether it stands above or below them.

Columns and labels:
[1] = molecular target: T1, Endothelin-converting enzyme 1 (Homo sapiens, UniProt P42892); assay: Inhibitory activity against Endothelin-converting enzyme 1
T1 sequence (P42892 whole entry): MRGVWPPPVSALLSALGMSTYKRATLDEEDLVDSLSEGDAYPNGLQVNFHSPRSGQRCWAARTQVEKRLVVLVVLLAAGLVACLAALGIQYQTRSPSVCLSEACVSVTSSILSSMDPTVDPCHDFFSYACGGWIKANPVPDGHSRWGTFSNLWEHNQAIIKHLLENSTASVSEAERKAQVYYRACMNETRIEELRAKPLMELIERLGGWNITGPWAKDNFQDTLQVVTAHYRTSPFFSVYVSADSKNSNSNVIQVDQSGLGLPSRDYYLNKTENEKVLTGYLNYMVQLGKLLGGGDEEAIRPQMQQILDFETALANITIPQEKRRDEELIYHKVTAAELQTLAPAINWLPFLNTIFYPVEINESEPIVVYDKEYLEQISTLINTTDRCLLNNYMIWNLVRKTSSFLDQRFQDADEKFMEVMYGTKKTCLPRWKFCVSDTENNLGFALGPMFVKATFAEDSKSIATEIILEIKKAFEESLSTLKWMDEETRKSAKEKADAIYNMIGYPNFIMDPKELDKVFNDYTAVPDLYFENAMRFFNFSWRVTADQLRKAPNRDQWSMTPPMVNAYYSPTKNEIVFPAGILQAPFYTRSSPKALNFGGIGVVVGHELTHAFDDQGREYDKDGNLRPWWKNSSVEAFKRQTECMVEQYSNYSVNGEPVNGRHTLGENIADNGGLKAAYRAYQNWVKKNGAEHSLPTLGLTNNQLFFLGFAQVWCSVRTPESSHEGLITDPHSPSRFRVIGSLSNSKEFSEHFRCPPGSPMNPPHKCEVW

Moraxella catarrhalis = assay: In vitro antibacterial activity against isolated Moraxella catarrhalis RA21; assay type: functional
Staphylococcus aureus = assay: In vitro antibacterial activity against Staphylococcus aureus ATCC 25923.; assay type: functional
Bacillus subtilis = assay: In vitro antibacterial activity against Bacillus subtilis ATCC 585969.; assay type: functional
Escherichia coli [2] = assay: In vitro antibacterial activity against Escherichia coli ATCC 25922.; assay type: functional
Neprilysin [3] = molecular target: T2, Neprilysin (Rattus norvegicus, UniProt P07861); assay: Inhibitory activity against endopeptidase enzyme (NEP).
T2 sequence (P07861 whole entry): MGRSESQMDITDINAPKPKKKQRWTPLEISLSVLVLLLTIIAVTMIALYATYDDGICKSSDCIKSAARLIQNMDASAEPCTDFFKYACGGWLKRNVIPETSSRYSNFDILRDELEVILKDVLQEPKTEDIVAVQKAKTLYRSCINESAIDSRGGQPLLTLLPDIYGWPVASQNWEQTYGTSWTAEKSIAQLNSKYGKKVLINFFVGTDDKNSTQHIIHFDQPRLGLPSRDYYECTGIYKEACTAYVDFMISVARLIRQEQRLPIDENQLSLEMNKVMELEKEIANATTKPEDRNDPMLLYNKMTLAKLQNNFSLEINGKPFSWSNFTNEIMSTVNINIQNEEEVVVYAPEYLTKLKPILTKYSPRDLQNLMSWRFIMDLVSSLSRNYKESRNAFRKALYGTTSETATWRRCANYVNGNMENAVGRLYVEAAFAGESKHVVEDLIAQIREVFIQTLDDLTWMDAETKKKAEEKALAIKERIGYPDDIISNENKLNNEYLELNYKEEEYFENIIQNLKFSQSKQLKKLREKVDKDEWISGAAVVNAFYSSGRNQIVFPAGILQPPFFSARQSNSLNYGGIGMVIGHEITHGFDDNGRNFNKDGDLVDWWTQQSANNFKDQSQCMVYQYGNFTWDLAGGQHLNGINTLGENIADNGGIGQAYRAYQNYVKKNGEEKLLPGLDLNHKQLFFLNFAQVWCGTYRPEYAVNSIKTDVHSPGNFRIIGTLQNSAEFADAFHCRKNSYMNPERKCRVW

Interstitial collagenase = molecular target: T3, Interstitial collagenase (Homo sapiens, UniProt P03956); assay: Inhibition of Matrix metalloprotease-1
T3 sequence (P03956 whole entry): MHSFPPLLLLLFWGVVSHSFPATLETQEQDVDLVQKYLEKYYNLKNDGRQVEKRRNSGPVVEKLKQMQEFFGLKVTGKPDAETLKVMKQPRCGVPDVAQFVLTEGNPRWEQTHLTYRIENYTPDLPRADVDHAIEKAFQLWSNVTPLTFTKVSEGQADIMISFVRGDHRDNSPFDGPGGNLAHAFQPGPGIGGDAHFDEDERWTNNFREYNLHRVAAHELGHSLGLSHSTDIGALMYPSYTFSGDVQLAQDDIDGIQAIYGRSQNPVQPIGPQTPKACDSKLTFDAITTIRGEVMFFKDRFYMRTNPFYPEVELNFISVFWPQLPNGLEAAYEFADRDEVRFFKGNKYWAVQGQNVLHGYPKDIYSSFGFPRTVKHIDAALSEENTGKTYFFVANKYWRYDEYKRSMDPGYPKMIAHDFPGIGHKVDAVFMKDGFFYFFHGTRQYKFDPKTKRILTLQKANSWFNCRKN

Pseudomonas aeruginosa = assay: In vitro antibacterial activity against Pseudomonas aeruginosa ATCC 27853.; assay type: functional
Collagenase 3 = Collagenase 3 (Homo sapiens, UniProt P45452); assay: Inhibition of Matrix metalloprotease-13
Haemophilus influenzae = assay: In vitro antibacterial activity against Haemophilus influenzae 11.; assay type: functional
[4] = molecular target: Angiotensin-converting enzyme (Homo sapiens, UniProt P12821)
Sequence of Angiotensin-converting enzyme (P12821 whole entry): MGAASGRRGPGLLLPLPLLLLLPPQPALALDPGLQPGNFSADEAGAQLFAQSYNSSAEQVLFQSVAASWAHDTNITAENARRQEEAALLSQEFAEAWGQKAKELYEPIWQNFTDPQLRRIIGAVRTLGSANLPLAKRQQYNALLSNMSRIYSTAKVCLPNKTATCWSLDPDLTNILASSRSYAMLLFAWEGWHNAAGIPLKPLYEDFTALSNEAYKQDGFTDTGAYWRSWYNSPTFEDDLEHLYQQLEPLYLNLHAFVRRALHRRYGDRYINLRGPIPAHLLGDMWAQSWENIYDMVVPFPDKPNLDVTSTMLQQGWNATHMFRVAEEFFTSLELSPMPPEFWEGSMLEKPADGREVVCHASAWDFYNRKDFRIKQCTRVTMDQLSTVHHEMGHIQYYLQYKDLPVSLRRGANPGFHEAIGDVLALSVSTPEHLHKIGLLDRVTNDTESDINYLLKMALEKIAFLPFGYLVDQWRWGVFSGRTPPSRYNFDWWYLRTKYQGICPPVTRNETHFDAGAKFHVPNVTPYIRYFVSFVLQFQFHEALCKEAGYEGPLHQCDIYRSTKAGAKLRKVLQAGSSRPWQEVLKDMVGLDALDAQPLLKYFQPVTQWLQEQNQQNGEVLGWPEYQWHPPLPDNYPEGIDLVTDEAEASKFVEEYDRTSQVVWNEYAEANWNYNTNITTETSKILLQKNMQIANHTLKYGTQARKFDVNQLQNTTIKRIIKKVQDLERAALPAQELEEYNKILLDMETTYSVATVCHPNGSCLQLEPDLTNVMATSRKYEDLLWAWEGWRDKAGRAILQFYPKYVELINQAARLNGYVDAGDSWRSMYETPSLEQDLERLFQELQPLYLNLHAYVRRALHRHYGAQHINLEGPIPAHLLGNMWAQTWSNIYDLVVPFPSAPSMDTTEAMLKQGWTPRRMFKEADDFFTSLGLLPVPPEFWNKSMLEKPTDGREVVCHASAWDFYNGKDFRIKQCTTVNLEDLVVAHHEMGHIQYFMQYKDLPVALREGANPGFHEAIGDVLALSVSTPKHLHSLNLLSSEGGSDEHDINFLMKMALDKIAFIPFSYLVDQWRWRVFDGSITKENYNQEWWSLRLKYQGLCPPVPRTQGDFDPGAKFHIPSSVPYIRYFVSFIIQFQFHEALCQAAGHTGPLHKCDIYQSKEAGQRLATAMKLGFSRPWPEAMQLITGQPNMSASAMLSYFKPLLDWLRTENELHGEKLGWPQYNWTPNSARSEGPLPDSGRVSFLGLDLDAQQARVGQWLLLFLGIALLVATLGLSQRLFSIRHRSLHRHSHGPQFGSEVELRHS

[5] = molecular target: Macrophage metalloelastase (Homo sapiens, UniProt P39900); assay: Inhibition of human Matrix metalloprotease-12
Sequence of Macrophage metalloelastase (P39900 whole entry): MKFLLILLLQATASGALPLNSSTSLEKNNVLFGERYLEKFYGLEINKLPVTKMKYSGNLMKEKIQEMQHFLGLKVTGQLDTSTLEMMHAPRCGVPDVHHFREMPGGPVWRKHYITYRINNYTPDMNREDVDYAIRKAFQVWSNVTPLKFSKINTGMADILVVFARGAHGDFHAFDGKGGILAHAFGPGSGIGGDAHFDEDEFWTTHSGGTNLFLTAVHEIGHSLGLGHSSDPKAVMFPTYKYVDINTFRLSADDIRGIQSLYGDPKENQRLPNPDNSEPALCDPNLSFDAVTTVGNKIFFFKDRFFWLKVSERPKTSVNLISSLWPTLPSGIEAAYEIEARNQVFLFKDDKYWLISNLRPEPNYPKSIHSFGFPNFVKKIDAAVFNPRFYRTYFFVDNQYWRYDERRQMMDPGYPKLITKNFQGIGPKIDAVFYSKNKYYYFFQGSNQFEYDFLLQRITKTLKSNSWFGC

[6] = test system: Mycoplasmoides pneumoniae; assay: In vitro antibacterial activity against Mycoplasma pneumoniae ATCC 29342.; assay type: functional
Chlamydia pneumoniae = assay: In vitro antibacterial activity against Chlamydia pneumoniae AR-39.; assay type: functional
Escherichia coli [7] = assay: In vitro antibacterial activity against isolated Escherichia coli DC2; assay type: functional
Streptococcus pneumoniae [8] = assay: In vitro antibacterial activity against Streptococcus pneumoniae ATCC 49619.; assay type: functional
[9] = test system: peptide deformylase (Streptococcus pneumoniae); assay: Inhibitory activity against PDF isolated from Streptococcus pneumoniae
Neprilysin [10] = molecular target: T2, Neprilysin; assay: Inhibitory activity against neutral endopeptidase enzyme (NEP).
[11] = test system: Stenotrophomonas maltophilia; assay: In vitro antibacterial activity against Stenotrophomonas maltophilia 1AC739.; assay type: functional
Enterococcus faecalis = assay: In vitro antibacterial activity against Enterococcus faecalis ATCC 29212.; assay type: functional
Enterococcus faecium = assay: In vitro antibacterial activity against Enterococcus faecium vanA E25_1.; assay type: functional
Streptococcus pneumoniae [12] = assay: In vitro antibacterial activity against Streptococcus pneumoniae 1/1 (penicillin resistant).; assay type: functional
[13] = Inhibitory activity against PDF isolated from Bacillus subtilis
Peptide deformylase = molecular target: T4, Peptide deformylase (Escherichia coli, UniProt Q9JN24); assay: Inhibitory activity against isolated Escherichia coli peptidyl deformylase (PDF) enzyme containing iron.
T4 sequence (Q9JN24 whole entry): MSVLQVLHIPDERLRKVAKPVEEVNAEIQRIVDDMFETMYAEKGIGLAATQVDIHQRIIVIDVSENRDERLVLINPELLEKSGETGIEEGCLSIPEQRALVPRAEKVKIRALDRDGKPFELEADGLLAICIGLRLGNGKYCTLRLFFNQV

Structure (SMILES): CCCC[C@H](CC(=O)NO)S(=O)(=O)c1ccccc1
pIC50 [1]: < 4.00
MIC (Moraxella catarrhalis): < 0.25 µg/mL
MIC (Staphylococcus aureus): 128 µg/mL (≈ 449 µM)
MIC (Bacillus subtilis): 1 µg/mL (≈ 3.5 µM)
MIC (Escherichia coli [2]): 128 µg/mL (≈ 449 µM)
pIC50 (Neprilysin [3]): 5.60
pIC50 (Interstitial collagenase): 6.82
MIC (Pseudomonas aeruginosa): > 128 µg/mL
pIC50 (Collagenase 3): 7.10
MIC (Haemophilus influenzae): 2 µg/mL (≈ 7.01 µM)
pIC50 [4]: 4.47
pIC50 [5]: 7.38
MIC [6]: 0.5 µg/mL (≈ 1.75 µM)
MIC (Chlamydia pneumoniae): 0.5 µg/mL (≈ 1.75 µM)
MIC (Escherichia coli [7]): 2 µg/mL (≈ 7.01 µM)
MIC (Streptococcus pneumoniae [8]): 128 µg/mL (≈ 449 µM)

pIC50 [1]: < 4.00
MIC (Moraxella catarrhalis): 16 µg/mL (≈ 56.1 µM)
pIC50 (Neprilysin [3]): 4.82
pIC50 (Interstitial collagenase): 6.52
pIC50 (Collagenase 3): 7.74
pIC50 [4]: < 4.00
pIC50 [5]: 8.05
MIC (Escherichia coli [7]): > 128 µg/mL
Structure (SMILES): CCCC[C@@H](CC(=O)NO)S(=O)(=O)c1ccccc1

Structure (SMILES): CCCCC(CC(=O)NO)S(=O)(=O)c1ccccc1 (stereo not drawn)
pIC50 [9]: 6.47
pIC50 [1]: < 4.30
MIC (Moraxella catarrhalis): < 0.25 µg/mL
MIC (Staphylococcus aureus): 256 µg/mL (≈ 897 µM)
MIC (Bacillus subtilis): 1 µg/mL (≈ 3.5 µM)
MIC (Escherichia coli [2]): 128 µg/mL (≈ 449 µM)
pIC50 (Neprilysin [10]): 4.74
pIC50 (Interstitial collagenase): 6.96
MIC [11]: 4 µg/mL (≈ 14 µM)
MIC (Pseudomonas aeruginosa): > 128 µg/mL
pIC50 (Collagenase 3): 7.66
MIC (Haemophilus influenzae): 4 µg/mL (≈ 14 µM)
pIC50 [4]: 4.09
pIC50 [5]: 7.92
MIC (Enterococcus faecalis): > 128 µg/mL
MIC [6]: 1 µg/mL (≈ 3.5 µM)
MIC (Chlamydia pneumoniae): 0.5 µg/mL (≈ 1.75 µM)
MIC (Enterococcus faecium): > 128 µg/mL
MIC (Escherichia coli [7]): 8 µg/mL (≈ 28 µM)
MIC (Streptococcus pneumoniae [12]): 128 µg/mL (≈ 449 µM)
pIC50 [13]: 7.02
MIC (Streptococcus pneumoniae [8]): 128 µg/mL (≈ 449 µM)

MIC (Moraxella catarrhalis): > 32 µg/mL
MIC (Escherichia coli [7]): > 32 µg/mL
Structure (SMILES): CC(CC(=O)NO)S(=O)(=O)c1ccccc1 (stereo not drawn)

Structure (SMILES): CCCCC(CC(=O)NO)[S+]([O-])c1ccc(Br)cc1 (stereo not drawn)
pIC50 (Peptide deformylase): 6.68
MIC (Moraxella catarrhalis): < 0.125 µg/mL
MIC (Escherichia coli [7]): 1 µg/mL (≈ 2.87 µM)

Structure (SMILES): CCCCC(CC(=O)NO)S(=O)(=O)c1cccc(OC)c1 (stereo not drawn)
pIC50 (Peptide deformylase): 7.07
MIC (Moraxella catarrhalis): 2 µg/mL (≈ 6.34 µM)
MIC (Escherichia coli [7]): 16 µg/mL (≈ 50.7 µM)

Structure (SMILES): CCCCC(CC(=O)NO)S(=O)(=O)c1ccc(OC)cc1 (stereo not drawn)
pIC50 (Peptide deformylase): 7.51
MIC (Moraxella catarrhalis): 0.5 µg/mL (≈ 1.59 µM)
MIC (Escherichia coli [7]): 16 µg/mL (≈ 50.7 µM)

MIC (Moraxella catarrhalis): < 0.06 µg/mL
MIC (Escherichia coli [7]): 1 µg/mL (≈ 3.5 µM)
Structure (SMILES): CCCC[C@H](C(O)C(=O)NO)[S+]([O-])c1ccccc1 (stereo partly drawn)

MIC (Moraxella catarrhalis): 4 µg/mL (≈ 14 µM)
MIC (Escherichia coli [7]): 32 µg/mL (≈ 112 µM)
Structure (SMILES): CCCC[C@@H](C(O)C(=O)NO)[S+]([O-])c1ccccc1 (stereo partly drawn)

Structure (SMILES): CCCCCC(CC(=O)NO)S(=O)(=O)c1ccccc1 (stereo not drawn)
pIC50 (Peptide deformylase): 6.85
MIC (Moraxella catarrhalis): < 0.06 µg/mL
MIC (Escherichia coli [7]): 2 µg/mL (≈ 6.68 µM)

Structure (SMILES): CCCCC(CC(=O)NO)[S+]([O-])c1ccccc1 (stereo not drawn)
pIC50 [9]: 6.62
pIC50 [1]: < 4.00
MIC (Moraxella catarrhalis): < 0.25 µg/mL
MIC (Staphylococcus aureus): 16 µg/mL (≈ 59.4 µM)
MIC (Bacillus subtilis): 0.25 µg/mL (≈ 0.928 µM)
MIC (Escherichia coli [2]): 32 µg/mL (≈ 119 µM)
pIC50 (Neprilysin [10]): 5.59
pIC50 (Interstitial collagenase): 7.03
MIC [11]: < 0.25 µg/mL
MIC (Pseudomonas aeruginosa): > 128 µg/mL
MIC (Haemophilus influenzae): 1 µg/mL (≈ 3.71 µM)
pIC50 [4]: < 4.00
MIC (Enterococcus faecalis): > 128 µg/mL
MIC [6]: 0.25 µg/mL (≈ 0.928 µM)
MIC (Chlamydia pneumoniae): 0.25 µg/mL (≈ 0.928 µM)
MIC (Enterococcus faecium): > 128 µg/mL
MIC (Escherichia coli [7]): 1 µg/mL (≈ 3.71 µM)
MIC (Streptococcus pneumoniae [12]): 64 µg/mL (≈ 238 µM)
pIC50 [13]: 7.34
MIC (Streptococcus pneumoniae [8]): 32 µg/mL (≈ 119 µM)

MIC (Moraxella catarrhalis): 4 µg/mL (≈ 13.6 µM)
MIC (Escherichia coli [7]): 64 µg/mL (≈ 218 µM)
Structure (SMILES): CCCCCCS(=O)(=O)C(CCCC)CC(=O)NO (stereo not drawn)

MIC (Moraxella catarrhalis): 2 µg/mL (≈ 5.49 µM)
MIC (Escherichia coli [7]): 16 µg/mL (≈ 43.9 µM)
Structure (SMILES): CCCCC(CC(=O)NO)S(=O)(=O)c1ccc(Br)cc1 (stereo not drawn)
